In PubChem BioAssay AID330 (DTP/NCI, 2004):
Inconclusive results and toxic doses are left out. How the source made its calls: active means survival T/C of 150% or more; inactive means T/C below 125% in these data.

System: P388 leukemia ip, CD2F1 mice, survival T/C
Assay: NCI In Vivo Anticancer Drug Screen. Data for tumor model P388 Leukemia (intraperitoneal) in CD2F1 (CDF1) mice
Settings: endpoint: median survival time, higher = longer survival
Procedure, shortened: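 Mice carrying the transplanted tumor received test compound or vehicle. Survival was recorded in each group, and the value is the treated-group measurement divided by that of the vehicle-treated control group.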

[1] = dose: 50.0 mg/kg/injection, schedule: Q01DX005 (ip), vehicle: saline with Tween-80
[2] = dose: 100.0 mg/kg/injection, schedule: Q01DX005 (ip), vehicle: saline with Tween-80
[3] = dose: 50.0 mg/kg/injection, schedule: Q01DX009 (ip), vehicle: saline
[4] = dose: 100.0 mg/kg/injection, schedule: Q01DX009 (ip), vehicle: saline
[5] = dose: 50.0 mg/kg/injection, schedule: Q01DX009 (ip), vehicle: saline with Tween-80
[6] = dose: 60.0 mg/kg/injection, schedule: Q01DX005 (ip), vehicle: saline with Tween-80
[7] = dose: 120.0 mg/kg/injection, schedule: Q01DX005 (ip), vehicle: saline with Tween-80
[8] = dose: 240.0 mg/kg/injection, schedule: Q01DX005 (ip), vehicle: saline with Tween-80
[9] = dose: 100.0 mg/kg/injection, schedule: Q01DX009 (ip), vehicle: saline with Tween-80
[10] = dose: 200.0 mg/kg/injection, schedule: Q01DX009 (ip), vehicle: saline with Tween-80

Measured: T/C

CCOC(=O)c1ccc(N)cc1
inactive: dose: 12.5 mg/kg/injection, schedule: Q01DX009 (ip), vehicle: distilled water + Tween-80 105 % of control | dose: 25.0 mg/kg/injection, schedule: Q01DX009 (ip), vehicle: distilled water + Tween-80 105 % of control | dose: 37.5 mg/kg/injection, schedule: Q01DX009 (ip), vehicle: saline with Tween-80 100 % of control | dose: 37.5 mg/kg/injection, schedule: Q04DX003 (ip), vehicle: saline with Tween-80 91 % of control | dose: 50.0 mg/kg/injection, schedule: Q01DX009 (ip), vehicle: distilled water + Tween-80 104 % of control | dose: 75.0 mg/kg/injection, schedule: Q01DX009 (ip), vehicle: saline with Tween-80 109 % of control | dose: 75.0 mg/kg/injection, schedule: Q04DX003 (ip), vehicle: saline with Tween-80 100 % of control | dose: 100.0 mg/kg/injection, schedule: Q01DX009 (ip), vehicle: distilled water + Tween-80 110 % of control | dose: 150.0 mg/kg/injection, schedule: Q01DX009 (ip), vehicle: saline with Tween-80 100 % of control | dose: 150.0 mg/kg/injection, schedule: Q04DX003 (ip), vehicle: saline with Tween-80 91 % of control | dose: 200.0 mg/kg/injection, schedule: Q01DX009 (ip), vehicle: distilled water + Tween-80 102 % of control

O=C(NNc1ccccc1)N(Nc1ccccc1)C(=O)Nc1ccccc1
inactive: [1] 99 % of control | [2] 91 % of control | dose: 200.0 mg/kg/injection, schedule: Q01DX005 (ip), vehicle: saline with Tween-80 99 % of control

NC(=O)c1n[nH]c(=S)[nH]c1=O
inactive: dose: 50.0 mg/kg/injection, schedule: Q01DX005 (ip), vehicle: Klucel (hydroxypropylcellulose) (HPC) 102 % of control | dose: 100.0 mg/kg/injection, schedule: Q01DX005 (ip), vehicle: Klucel (hydroxypropylcellulose) (HPC) 91 % of control | dose: 200.0 mg/kg/injection, schedule: Q01DX005 (ip), vehicle: Klucel (hydroxypropylcellulose) (HPC) 96 % of control

C=CCC(NC(C)=O)C(=O)O (stereo not given)
inactive: dose: 25.0 mg/kg/injection, schedule: Q01DX009 (ip), vehicle: saline 88 % of control | [3] 101 % of control | [4] 93 % of control

CCCCCCCC[N+](C)(C)Cc1ccc(Oc2ccc(C[N+](C)(C)CCCCCCCC)cc2)cc1
inactive: dose: 6.25 mg/kg/injection, schedule: Q04DX003 (ip), vehicle: saline 108 % of control | dose: 12.5 mg/kg/injection, schedule: Q04DX003 (ip), vehicle: saline 110 % of control | dose: 25.0 mg/kg/injection, schedule: Q04DX003 (ip), vehicle: saline 110 % of control

NC(=O)N/N=c1/oc2ccccc2cc1C(N)=O
inactive: dose: 100.0 mg/kg/injection, schedule: Q04DX002 (ip), vehicle: saline 98 % of control | dose: 200.0 mg/kg/injection, schedule: Q04DX002 (ip), vehicle: saline 98 % of control | dose: 400.0 mg/kg/injection, schedule: Q04DX002 (ip), vehicle: saline 96 % of control

NC(=S)N/N=C\c1nccc2ccc(N)cc12
inactive: [5] 94 % of control

CCN(CC)CCCNc1c2c(nc3c(Cl)cccc13)CCCC2
inactive: [1] 100 % of control | [2] 100 % of control

CC(=O)OCCNc1n[nH]c(=O)c2cnccc12
inactive: dose: 30.0 mg/kg/injection, schedule: Q01DX005 (ip), vehicle: saline with Tween-80 110 % of control | [6] 104 % of control | [7] 101 % of control | [8] 103 % of control

Cc1cc([Se][Se]c2cc(C)c(C)cc2[N+](=O)[O-])c([N+](=O)[O-])cc1C
inactive: [6] 92 % of control | [7] 93 % of control | [8] 91 % of control

CCCCNC(=O)Nc1ccc(C(=O)OCCCC)cc1
inactive: dose: 100.0 mg/kg/injection, schedule: Q04DX003 (ip), vehicle: saline with Tween-80 100 % of control | dose: 200.0 mg/kg/injection, schedule: Q04DX003 (ip), vehicle: saline with Tween-80 90 % of control

CC(=O)Oc1ccc2c(c1)c1c(OC(C)=O)c(N(C)C(C)=O)cc(OC(C)=O)c1n2C
inactive: [3] 100 % of control | [4] 86 % of control | dose: 200.0 mg/kg/injection, schedule: Q01DX009 (ip), vehicle: saline 100 % of control

Nc1ccccc1OCCCn1cc(-c2ccc(Cl)c(Cl)c2)c(N)nc1=O
inactive: dose: 7.5 mg/kg/injection, schedule: Q01DX005 (ip), vehicle: Klucel (hydroxypropylcellulose) (HPC) 103 % of control | dose: 15.0 mg/kg/injection, schedule: Q01DX005 (ip), vehicle: Klucel (hydroxypropylcellulose) (HPC) 96 % of control | dose: 30.0 mg/kg/injection, schedule: Q01DX005 (ip), vehicle: Klucel (hydroxypropylcellulose) (HPC) 93 % of control

O=Cc1ccc(N=Nc2c(S(=O)(=O)O)cc3cc(S(=O)(=O)O)cc(O)c3c2O)cc1
inactive: [5] 90 % of control | [9] 90 % of control | [10] 100 % of control

CCC(O)(CC)/C(C)=N/O
inactive: [5] 91 % of control | [9] 89 % of control | [10] 94 % of control
